In patent US10168342B2, “Lipid probes and uses thereof” (THE SCRIPPS RESEARCH INSTITUTE, priority 2015, dated 2019):

How the values were obtained:
[1] = system: membrane and soluble proteins of HEK293T cells; assay: Gel-based profiling of lipid probe labeling in HEK293T cells; type: cell-based, human; conditions: probe 20 μM, 30 min, UV
Description: For gel-based analysis, after sonicating the membrane pellets in cold DPBS, protein concentrations of each fraction were determined using the BCA protein assay (Bio-Rad) and a microplate reader (Tecan, Infinite F500).
Proteomes were diluted to 1.0 mg/mL (total protein concentration) and 50 μL of each proteome was transferred to separate wells in a 96-well plate.
In some instances, within the arachidonoyl subset of probes, fatty acid- and fatty acid amide-based probes (AA-DA and AEA-DA, respectively) were synthesized and their potential were evaluated to bind and covalently modify (under UV-light exposure) proteins in human cells by gel-based profiling. For example, HEK293T cells were treated with probe (AA-DA or AEA-DA; 20 μM, 30 min), irradiated with UV light (10 min, 4° C.), lysed and the cell proteomes fractionated into membrane and soluble components by centrifugation prior to conjugation to a fluorescent reporter tag (Rh—N3) using CuAAC (FIG. 4A). […] In some instances, this was a consequence of rapid sequestration of this probe into membranes through its metabolic incorporation into phospho/neutral-lipids or into lipidated proteins. […] In some instances, the labeling profile of the AEA-DA probe reflected a limited capacity of the cell to metabolize this amidated probe, which undergoes enzyme-mediated hydrolysis prior to incorporation into other lipids or proteins.

[2] = molecular target: AEA-DA lipid probe targets in A549 cells (Homo sapiens, UniProt O95470); assay: In situ competitive SILAC profiling with AEA-DA probe in A549 cells; conditions: competitor 25 μM
Sequence of AEA-DA lipid probe targets in A549 cells (Homo sapiens, UniProt O95470) (O95470 whole entry): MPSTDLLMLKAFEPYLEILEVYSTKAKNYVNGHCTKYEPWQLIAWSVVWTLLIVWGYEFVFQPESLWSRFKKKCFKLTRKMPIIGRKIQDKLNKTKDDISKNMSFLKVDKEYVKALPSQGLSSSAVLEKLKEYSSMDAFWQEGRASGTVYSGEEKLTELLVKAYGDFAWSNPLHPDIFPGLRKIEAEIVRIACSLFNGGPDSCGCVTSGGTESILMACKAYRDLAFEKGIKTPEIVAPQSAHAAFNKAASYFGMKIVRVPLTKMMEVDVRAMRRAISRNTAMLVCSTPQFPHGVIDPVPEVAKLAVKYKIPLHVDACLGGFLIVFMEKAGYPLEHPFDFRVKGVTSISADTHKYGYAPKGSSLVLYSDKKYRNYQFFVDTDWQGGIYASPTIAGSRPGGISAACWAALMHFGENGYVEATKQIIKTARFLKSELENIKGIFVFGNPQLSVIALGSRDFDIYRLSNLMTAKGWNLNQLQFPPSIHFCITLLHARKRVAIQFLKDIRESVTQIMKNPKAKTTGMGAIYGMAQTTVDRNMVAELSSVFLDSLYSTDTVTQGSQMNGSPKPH

[3] = molecular target: AEA-DA lipid probe targets in A549 cells (Homo sapiens, UniProt P21796); assay: as above; conditions: competitor 25 μM
Sequence of AEA-DA lipid probe targets in A549 cells (Homo sapiens, UniProt P21796) (P21796 whole entry): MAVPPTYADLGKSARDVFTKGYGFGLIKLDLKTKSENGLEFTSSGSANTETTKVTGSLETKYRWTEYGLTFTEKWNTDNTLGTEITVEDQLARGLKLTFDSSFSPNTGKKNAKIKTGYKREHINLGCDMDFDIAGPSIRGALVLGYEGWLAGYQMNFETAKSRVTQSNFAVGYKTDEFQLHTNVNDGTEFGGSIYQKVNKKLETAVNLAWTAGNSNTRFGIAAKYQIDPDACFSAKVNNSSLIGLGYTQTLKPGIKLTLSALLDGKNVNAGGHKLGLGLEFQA

[4] = molecular target: AEA-DA lipid probe targets in A549 cells (Homo sapiens, UniProt P30519); assay: as above; conditions: competitor 25 μM
Sequence of AEA-DA lipid probe targets in A549 cells (Homo sapiens, UniProt P30519) (P30519 whole entry): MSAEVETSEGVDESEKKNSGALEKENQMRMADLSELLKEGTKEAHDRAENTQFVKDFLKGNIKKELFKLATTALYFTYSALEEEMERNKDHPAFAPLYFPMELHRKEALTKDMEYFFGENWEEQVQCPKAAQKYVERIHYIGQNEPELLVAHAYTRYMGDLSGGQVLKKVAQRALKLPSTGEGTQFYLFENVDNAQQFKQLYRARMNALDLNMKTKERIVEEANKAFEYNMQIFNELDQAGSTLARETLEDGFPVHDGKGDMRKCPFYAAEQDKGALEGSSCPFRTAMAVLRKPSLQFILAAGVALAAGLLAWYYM

[5] = molecular target: AEA-DA lipid probe targets in A549 cells (Homo sapiens, UniProt P45880); assay: as above; conditions: competitor 25 μM
Sequence of AEA-DA lipid probe targets in A549 cells (Homo sapiens, UniProt P45880) (P45880 whole entry): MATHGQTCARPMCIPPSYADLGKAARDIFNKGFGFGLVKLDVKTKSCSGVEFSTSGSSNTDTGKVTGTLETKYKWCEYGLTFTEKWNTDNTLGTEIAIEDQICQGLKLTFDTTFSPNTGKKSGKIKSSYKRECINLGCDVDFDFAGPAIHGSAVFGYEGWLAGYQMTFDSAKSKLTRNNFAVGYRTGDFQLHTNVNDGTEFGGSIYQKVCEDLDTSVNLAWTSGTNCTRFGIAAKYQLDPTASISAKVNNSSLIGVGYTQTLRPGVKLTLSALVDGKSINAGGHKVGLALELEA

[6] = molecular target: AEA-DA lipid probe targets in A549 cells (Homo sapiens, UniProt P67812); assay: as above; conditions: competitor 25 μM
Sequence of AEA-DA lipid probe targets in A549 cells (Homo sapiens, UniProt P67812) (P67812 whole entry): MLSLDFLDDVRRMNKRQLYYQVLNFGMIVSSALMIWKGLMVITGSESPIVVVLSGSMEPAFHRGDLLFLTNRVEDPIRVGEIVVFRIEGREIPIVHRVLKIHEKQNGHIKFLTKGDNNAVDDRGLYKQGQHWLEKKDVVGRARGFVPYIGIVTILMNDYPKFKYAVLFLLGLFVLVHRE

[7] = molecular target: AEA-DA lipid probe targets in A549 cells (Homo sapiens, UniProt Q14534); assay: as above; conditions: competitor 25 μM
Sequence of AEA-DA lipid probe targets in A549 cells (Homo sapiens, UniProt Q14534) (Q14534 whole entry): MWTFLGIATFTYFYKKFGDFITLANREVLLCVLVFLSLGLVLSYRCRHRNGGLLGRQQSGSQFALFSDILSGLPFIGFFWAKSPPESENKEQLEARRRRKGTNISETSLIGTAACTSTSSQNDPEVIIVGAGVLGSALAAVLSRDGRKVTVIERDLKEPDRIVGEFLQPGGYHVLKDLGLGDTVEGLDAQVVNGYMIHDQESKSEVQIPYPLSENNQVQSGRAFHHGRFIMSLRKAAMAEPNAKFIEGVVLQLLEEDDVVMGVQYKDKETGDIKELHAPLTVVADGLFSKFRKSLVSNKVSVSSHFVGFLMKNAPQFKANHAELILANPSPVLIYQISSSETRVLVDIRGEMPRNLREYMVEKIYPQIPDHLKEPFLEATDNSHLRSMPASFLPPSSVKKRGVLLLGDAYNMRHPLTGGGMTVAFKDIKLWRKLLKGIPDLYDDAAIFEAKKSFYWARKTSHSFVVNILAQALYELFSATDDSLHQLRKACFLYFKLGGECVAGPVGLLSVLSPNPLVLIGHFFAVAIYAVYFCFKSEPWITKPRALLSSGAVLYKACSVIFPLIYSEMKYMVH

[8] = molecular target: AEA-DA lipid probe targets in A549 cells (Homo sapiens, UniProt Q53GQ0); assay: as above; conditions: competitor 25 μM
Sequence of AEA-DA lipid probe targets in A549 cells (Homo sapiens, UniProt Q53GQ0) (Q53GQ0 whole entry): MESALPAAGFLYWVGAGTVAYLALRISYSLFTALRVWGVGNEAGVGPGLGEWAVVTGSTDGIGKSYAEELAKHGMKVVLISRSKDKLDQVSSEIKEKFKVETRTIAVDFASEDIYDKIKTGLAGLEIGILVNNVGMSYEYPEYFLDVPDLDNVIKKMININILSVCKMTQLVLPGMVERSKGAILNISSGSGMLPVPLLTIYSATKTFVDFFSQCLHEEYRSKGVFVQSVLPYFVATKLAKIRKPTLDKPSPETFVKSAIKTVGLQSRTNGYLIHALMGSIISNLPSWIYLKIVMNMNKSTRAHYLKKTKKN

[9] = molecular target: AEA-DA lipid probe targets in A549 cells (Homo sapiens, UniProt Q86XL3); assay: as above; conditions: competitor 25 μM
Sequence of AEA-DA lipid probe targets in A549 cells (Homo sapiens, UniProt Q86XL3) (Q86XL3 whole entry): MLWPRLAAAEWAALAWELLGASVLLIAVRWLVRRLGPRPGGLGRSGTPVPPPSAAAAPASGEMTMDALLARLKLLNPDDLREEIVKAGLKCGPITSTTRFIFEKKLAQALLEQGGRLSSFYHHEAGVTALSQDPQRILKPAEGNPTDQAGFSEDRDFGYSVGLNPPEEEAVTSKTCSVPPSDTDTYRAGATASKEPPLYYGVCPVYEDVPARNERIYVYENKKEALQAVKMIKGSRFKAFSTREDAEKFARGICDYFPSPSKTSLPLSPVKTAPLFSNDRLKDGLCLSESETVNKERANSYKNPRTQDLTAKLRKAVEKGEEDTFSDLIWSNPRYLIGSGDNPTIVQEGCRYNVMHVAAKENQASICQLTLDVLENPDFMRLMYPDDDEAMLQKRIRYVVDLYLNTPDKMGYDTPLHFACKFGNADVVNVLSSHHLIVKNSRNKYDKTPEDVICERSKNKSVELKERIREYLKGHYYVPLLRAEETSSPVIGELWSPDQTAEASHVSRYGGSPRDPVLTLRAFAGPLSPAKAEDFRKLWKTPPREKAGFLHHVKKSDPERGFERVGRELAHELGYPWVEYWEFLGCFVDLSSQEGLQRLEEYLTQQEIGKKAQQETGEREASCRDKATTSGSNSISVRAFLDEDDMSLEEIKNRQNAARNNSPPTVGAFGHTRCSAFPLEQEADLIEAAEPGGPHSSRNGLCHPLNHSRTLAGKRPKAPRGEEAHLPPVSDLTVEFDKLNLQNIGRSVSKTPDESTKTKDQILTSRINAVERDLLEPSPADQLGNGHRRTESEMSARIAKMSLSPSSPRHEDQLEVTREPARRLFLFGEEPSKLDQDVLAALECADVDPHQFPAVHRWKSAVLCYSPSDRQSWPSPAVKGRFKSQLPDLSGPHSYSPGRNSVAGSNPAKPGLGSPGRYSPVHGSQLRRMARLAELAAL

[10] = system: AEA-DA lipid probe targets in A549 cells; assay: as above; conditions: competitor 25 μM
[11] = molecular target: A-DA lipid probe targets in A549 cells (Homo sapiens, UniProt Q5HYK3); assay: In situ competitive SILAC profiling with A-DA probe in (PMA-stimulated) A549 cells; conditions: A549 cells, A-DA probe
Sequence of A-DA lipid probe targets in A549 cells (Homo sapiens, UniProt Q5HYK3) (Q5HYK3 43-327): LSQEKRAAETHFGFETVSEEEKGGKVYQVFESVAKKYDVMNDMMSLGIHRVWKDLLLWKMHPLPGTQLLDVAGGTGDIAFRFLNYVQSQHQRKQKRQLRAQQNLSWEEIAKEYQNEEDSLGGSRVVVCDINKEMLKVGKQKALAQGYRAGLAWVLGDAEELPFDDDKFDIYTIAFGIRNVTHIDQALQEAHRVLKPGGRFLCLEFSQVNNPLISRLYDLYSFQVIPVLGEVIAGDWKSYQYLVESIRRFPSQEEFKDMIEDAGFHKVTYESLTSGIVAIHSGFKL

[12] = molecular target: A-DA lipid probe targets in A549 cells (Homo sapiens, UniProt P48449); assay: as above; conditions: A549 cells, A-DA 5 μM, drug 5 μM; only two off-targets (TMEM97 and EBP)
Sequence of A-DA lipid probe targets in A549 cells (Homo sapiens, UniProt P48449) (P48449 whole entry): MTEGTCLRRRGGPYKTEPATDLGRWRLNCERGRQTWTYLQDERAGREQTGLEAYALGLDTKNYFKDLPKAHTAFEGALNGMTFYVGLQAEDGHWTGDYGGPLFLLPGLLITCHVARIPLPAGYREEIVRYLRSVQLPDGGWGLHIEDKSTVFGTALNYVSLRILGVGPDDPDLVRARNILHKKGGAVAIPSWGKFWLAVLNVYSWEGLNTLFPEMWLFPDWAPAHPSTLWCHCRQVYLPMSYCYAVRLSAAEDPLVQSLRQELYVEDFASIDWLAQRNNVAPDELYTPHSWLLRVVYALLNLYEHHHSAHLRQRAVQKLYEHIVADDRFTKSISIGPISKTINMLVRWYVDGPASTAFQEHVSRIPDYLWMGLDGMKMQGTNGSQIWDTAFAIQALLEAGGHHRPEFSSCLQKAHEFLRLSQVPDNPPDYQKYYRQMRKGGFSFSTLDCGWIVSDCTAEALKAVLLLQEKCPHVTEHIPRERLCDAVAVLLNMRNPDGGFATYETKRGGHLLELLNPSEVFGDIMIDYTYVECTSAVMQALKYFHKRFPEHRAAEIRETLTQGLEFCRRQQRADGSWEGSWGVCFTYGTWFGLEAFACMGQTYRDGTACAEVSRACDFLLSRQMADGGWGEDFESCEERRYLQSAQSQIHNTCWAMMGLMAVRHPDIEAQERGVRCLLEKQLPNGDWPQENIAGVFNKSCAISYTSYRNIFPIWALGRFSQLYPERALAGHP

[13] = molecular target: T1, A-DA lipid probe targets in A549 cells (Homo sapiens, UniProt Q9UH99); assay: as above; conditions: protein SUN2 (Q9UH99), A549 cells
T1 sequence (Q9UH99 1-717): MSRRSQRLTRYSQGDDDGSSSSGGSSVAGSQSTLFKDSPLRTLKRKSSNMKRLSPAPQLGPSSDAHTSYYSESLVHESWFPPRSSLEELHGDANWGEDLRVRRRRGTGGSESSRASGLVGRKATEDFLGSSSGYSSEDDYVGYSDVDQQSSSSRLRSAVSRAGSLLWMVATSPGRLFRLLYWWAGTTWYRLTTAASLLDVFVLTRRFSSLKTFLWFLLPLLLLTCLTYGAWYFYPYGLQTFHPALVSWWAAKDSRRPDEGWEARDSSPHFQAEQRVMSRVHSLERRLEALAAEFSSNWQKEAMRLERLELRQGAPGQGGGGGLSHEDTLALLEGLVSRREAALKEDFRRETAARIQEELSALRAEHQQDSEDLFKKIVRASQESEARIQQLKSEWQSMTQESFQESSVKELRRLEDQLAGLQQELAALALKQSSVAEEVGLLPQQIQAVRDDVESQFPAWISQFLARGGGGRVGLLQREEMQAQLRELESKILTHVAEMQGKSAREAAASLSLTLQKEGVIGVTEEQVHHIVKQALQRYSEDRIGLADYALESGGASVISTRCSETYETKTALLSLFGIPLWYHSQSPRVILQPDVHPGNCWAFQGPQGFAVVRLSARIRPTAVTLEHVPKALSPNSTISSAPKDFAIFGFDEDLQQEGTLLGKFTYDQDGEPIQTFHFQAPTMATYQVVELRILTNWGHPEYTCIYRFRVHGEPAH

**Q.** For `C#CCCCC1(CC/C=C\C/C=C\C/C=C\CCCC(=O)NCCO)N=N1` [AEA-DA, (5Z,8Z,11Z)-N-(2-hydroxyethyl)-14-(3-(pent-4-yn-1-yl)-3H-diazirin-3-yl)tetradeca-5,8,11-trienamide], which “protein labeling profile (membrane vs soluble)” value [1] is on record?
**A.** substantial labeling of both soluble and membrane proteins

**Q.** What does the source list for `O=C(/C=C/c1cccnc1)NCCCCC1CCN(C(=O)c2ccccc2)CC1` [FK-866, reference compound]?
**A.** SILAC ratio, SGPL1 (O95470) [2]: 0.8; SILAC ratio, VDAC1 (P21796) [3]: 0.8; SILAC ratio, HMOX2 (P30519) [4]: 0.7; SILAC ratio, VDAC2 (P45880) [5]: 0.9; SILAC ratio, SEC11A (P67812) [6]: 0.6; SILAC ratio, SQLE (Q14534) [7]: 0.7; SILAC ratio, HSD17B12 (Q53GQ0) [8]: 0.8; SILAC ratio, ANKLE2 (Q86XL3) [9]: 0.6; SILAC ratio, PGRMC2 (Q80UU9) [10]: 0.7; SILAC ratio, PSAP (P07602) [10]: 0.7; SILAC ratio, TOMM22 (Q9CPQ3) [10]: 0.6; SILAC ratio, UGT1A7 (Q9HAW7) [10]: 1.5

**Q.** For `C=CCN(C)CCCCCCOc1ccc(C(=O)c2ccc(Br)cc2)c(F)c1` [Ro488071], which “SILAC ratio, COQ5 (Q5HYK3)” value ([11]; competitor 5 μM) is on record?
**A.** 2.0

**Q.** What about the “SILAC ratio, COQ5 (Q5HYK3)” value ([11]; competitor 50 μM) of the same molecule?
**A.** 3.4

**Q.** What does the source list for `C=CCN(C)CCCCCCOc1ccc(C(=O)c2ccc(Br)cc2)c(F)c1` [Ro 48-8071, reference compound]?
**A.** competition of probe labeling of LSS [12]: fully competed; SILAC ratio, A-DA competition ([13]; competitor 5.0 μM): 1.3; SILAC ratio, A-DA competition ([13]; competitor 50 μM): 1.3
